In ChEMBL document CHEMBL1201862, “PubChem BioAssay data set” (2004):
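Cells were grown in 96-well plates and exposed to each compound for 48 hours at five concentrations; endpoints were interpolated linearly between bracketing concentrations, or set to the highest concentration if not reached. The concentration for 50% growth inhibition is given as GI50.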 The source made the active and inactive calls. No stated cut-off is given here; in the data, active = GI50 up to about 1.1 µM and inactive = higher.

Key:
Experiment in all cases: NCI tumour cell line growth inhibition, 48 h
SNB-78 = system: SNB-78
DMS-114 = system: DMS-114
DMS-273 = system: DMS-273
XF498 = system: XF498
M19-MEL = system: M19-MEL
KM-20L2 = system: KM-20L2
HOP-18 = system: HOP-18
DLD-1 = system: DLD-1
RXF 631 = system: RXF 631

Measured: GI50

Cc1c2ccnc(C(N)=O)c2c(C)c2c1[nH]c1ccccc12
inactive: SNB-78 14 µM | DMS-114 8.91 µM | DMS-273 2.39 µM | XF498 8.24 µM | M19-MEL 7.46 µM | KM-20L2 6.62 µM | HOP-18 9.48 µM | DLD-1 5.07 µM | RXF 631 4.58 µM

N#CCC(=O)N/N=C(/C(=O)Nc1ccccc1)C1C(=O)N(c2ccccc2)N=C1N (stereo not drawn)
inactive: SNB-78 > 100 µM | DMS-114 > 100 µM | DMS-273 > 100 µM | XF498 > 100 µM | M19-MEL > 100 µM | KM-20L2 > 100 µM | HOP-18 > 100 µM | DLD-1 > 100 µM | RXF 631 > 100 µM
